{"source": "patent US20240350480A1", "about": "“STABLE PHARMACEUTICAL COMPOSITION OF METHYLNALTREXONE FOR AN ORAL ADMINISTRATION” (Lupin Limited, priority 2023, published 2024)", "origin": "cited, not measured here", "conditions": "oral administration", "data": [{"smiles": "C[N+]1(CC2CC2)CC[C@]23c4c5ccc(O)c4O[C@H]2C(=O)CC[C@@]3(O)[C@H]1C5.[Br-]", "note": "(stereo partly shown) [methylnaltrexone]", "values": [{"measurement": "Methylnaltrexone absorbed into the bloodstream", "value": "less than 5%"}]}]}
